Assays:
[1] = target: T1, recombinant human liver GK (Homo sapiens, UniProt P35557); assay: Glucokinase-activating effect (Thio-NADH, G6PDH-coupled assay); format: biochemical; conditions: final glucose 2.5 mM, 30° C; for Emax(%): OD level of DMSO control = 100%
T1 construct: made in house; host or cells: E. coli
T1 sequence (P35557 1-466 isoform P35557-2): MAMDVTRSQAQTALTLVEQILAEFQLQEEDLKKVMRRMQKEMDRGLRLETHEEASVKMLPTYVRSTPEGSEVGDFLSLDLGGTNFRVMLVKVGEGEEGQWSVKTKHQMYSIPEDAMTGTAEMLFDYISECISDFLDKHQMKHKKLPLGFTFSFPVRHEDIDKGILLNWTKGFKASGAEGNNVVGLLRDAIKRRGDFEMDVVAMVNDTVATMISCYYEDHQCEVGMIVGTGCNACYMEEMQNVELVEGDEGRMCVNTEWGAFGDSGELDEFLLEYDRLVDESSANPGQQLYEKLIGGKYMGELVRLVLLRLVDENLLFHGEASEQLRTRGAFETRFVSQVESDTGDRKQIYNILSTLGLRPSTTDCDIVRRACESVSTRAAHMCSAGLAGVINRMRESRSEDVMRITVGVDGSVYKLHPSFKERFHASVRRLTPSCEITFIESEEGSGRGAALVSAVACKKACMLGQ
Excerpt: The excellent glucokinase-activating effect of the compounds of formula (I) may be determined by a method described in literature (for example, Diabetes, Vol. 45, pp. 1671-1677, 1996), or in accordance with it.
The glucokinase activity may be determined not by directly measuring glucose-6-phosphate but by measuring the level of Thio-NADH, which is produced when a reporter enzyme, glucose-6-phosphate dehydrogenase produces phosphogluconolactone from glucose-6-phosphate, and based on the level, the degree of glucokinase activation by the compound tested may be determined.
In this assay, used was a recombinant human liver GK, which was expressed by E. coli as a FLAG fusion protein therein and was purified by ANTIFLAG M2 AFFINITY GEL (Sigma).
Using a flat-bottomed 96-well plate, the assay was carried out at 30° C. 69 μl of an assay buffer (25 mM Hepes Buffer/pH=7.2, 2 mM MgCl2, 1 mM ATP, 0.5 mM TNAD, 1 mM dithiothreitol) was put into the plate, and 1 μl of a DMSO solution of the compound or DMSO alone as a control was added thereto. Next, 20 μl of an enzyme mixture (FLAG-GK, 20 U/ml G6PDH) cooled in ice was added to it, and 10 μl of a substrate, 25 mM glucose was added to it, and the reaction was initiated (final glucose concentration=2.5 mM).
After the start of the reaction, the increase in the absorbance at 405 nm was measured for 12 minutes at intervals of 30 seconds, and the increase for the first 5 minutes was used for assessing the compound tested. FLAG-GK was added so that the absorbance increase after 5 minutes in the presence of 1% DMSO could be from 0.04 to 0.06.
The OD level of the DMSO control was set as 100%; and the OD level of the test compound at different concentrations was determined. From the OD level at each concentration, Emax (%) and EC50 (μM) were computed and used as the index of the GK-activating potency of the compound.
The GK activating effect of the compounds of the invention was measured according to the method as above, and the results are shown in Table 5 below.

male beagles = assay: Antihyperglycemic effect in fasted beagles (plasma glucose AUC); format: in vivo; conditions: compared to control group up to 4 hours after administration, fasted overnight
Method: From the cephalic vein of male beagles fasted overnight (9.4-14.4 kg body weight), blood was collected prior to administration, followed by oral administration of the test drug suspended in a 0.5% methyl cellulose solution (0.3 and 1 mg/kg), while a 0.5% methyl cellulose solution was orally administered to the control group. The blood was collected at 0.5, 1, 2, and 4 hours after the administration of the test drug. Plasma was separated from the obtained blood to determine a plasma glucose level using Determina-GL-E (Kyowa Medics).

[2] = system: high-fat diet loaded mice; assay: Antihyperglycemic effect in high-fat diet loaded mice; format: in vivo, C57BL/6J mice; conditions: oral 10 mg/kg in 0.5% methyl cellulose; 1 hour after administration; free-feeding mice
Method: Six-week-old male C57BL/6J mice were fed a high-fat diet (RESEARCH DIETS, D12492) for ≧9 weeks to produce the high-fat diet loaded mice (>160 mg/dl).
The slight tail tips of the high-fat diet loaded mice (18-21 weeks old, n=6) under the conditions of free-feeding and water intake were cut with scissors to collect their blood. The collected blood was used to determine blood glucose levels prior to the administration of a compound by a blood glucose level measuring apparatus (One Touch Ultra (Johnson. Johnson)), followed by oral administration of the compound suspended in a 0.5% methyl cellulose solution at 10 mg/kg, while a 0.5% methyl cellulose solution was orally administered to the control group. The blood glucose levels were determined using the blood glucose level measuring apparatus every 1 hour after the administration of the test drug solutions.
The values of the decreases in blood glucose (differences between the control group and the compound-treated group) at 1 hour after administration were shown in Table 7 described below.
The values of the decreases in blood glucose (differences between the control group and the compound-treated group) at 1 hour after administration of the compounds according to Example 1 and Example 7 were shown in Table 7 described below.

[3] = racemates, comparison with WO2007/007910

With CN(C)C(=O)Cc1ccc(Oc2cc3nc(-c4ccccn4)[nH]c3cc2C2CCC(=O)O2)cc1 (single isomer, unassigned) [Example 7 A, N,N-dimethyl-2-(4-{[6-(5-oxotetrahydrofuran-2-yl)-2-pyridin-2-yl-1H-benzimidazol-5-yl]oxy}phenyl)acetamide] the “Emax(%)” value ([1]; separated enantiomers, listed as 7 A) was 775% and the EC50 ([1]; separated enantiomers) was 2470 nM.

CCNC(=O)c1ccc(Oc2cc3nc(-c4ccccn4)[nH]c3cc2C2CCC(=O)O2)cn1 (single isomer, unassigned) [Example 6 A, N-ethyl-5-{[6-(5-oxotetrahydrofuran-2-yl)-2-pyridin-2-yl-1H-benzimidazol-5-yl]oxy}pyridine-2-carboxamide] was tested, and the “Emax(%)” value ([1]; separated enantiomers, listed as 6 A) was 553% and the EC50 ([1]; separated enantiomers) was 1830 nM.

For COCc1ccc(Oc2cc3nc(-c4ccccn4)[nH]c3cc2C2CCC(=O)O2)cn1 (single isomer, unassigned) [Example 11 A, 5-(5-{[6-(methoxymethyl)pyridin-3-yl]oxy}-2-pyridin-2-yl-1H-benzimidazol-6-yl)dihydrofuran-2(3H)-one], the “Emax(%)” value ([1]; separated enantiomers, listed as 11 A) was 412% and the EC50 ([1]; separated enantiomers) was 16600 nM.

For O=C1CCC(c2cc3[nH]c(-c4ccccn4)nc3cc2Oc2ccc(C(=O)N3CCC3)nc2)O1 (single isomer, unassigned) [Example 2 B, 5-(5-{[6-(azetidin-1-ylcarbonyl)pyridin-3-yl)oxy}-2-pyridin-2-yl-1H-benzimidazol-6-yl)dihydrofuran-2(3H)-one], the “Emax(%)” value ([1]; separated enantiomers, listed as 2 B) was 704% and the EC50 ([1]; separated enantiomers) was 310 nM.

O=C1CCC(c2cc3[nH]c(-c4ccccn4)nc3cc2Oc2ccc(C(=O)N3CCC3)nc2)O1 (single isomer, unassigned) [Example 2 A, 5-(5-{[6-(azetidin-1-ylcarbonyl)pyridin-3-yl)oxy}-2-pyridin-2-yl-1H-benzimidazol-6-yl)dihydrofuran-2(3H)-one] was tested, and the “Emax(%)” value ([1]; separated enantiomers, listed as 2 A) was 476% and the EC50 ([1]; separated enantiomers) was 15100 nM.

In the case of CN(C)C(=O)c1ccc(Oc2cc3nc(-c4ccccn4)[nH]c3cc2C2CCC(=O)O2)cn1 (single isomer, unassigned) [Example 4 A, N,N-dimethyl-5-{[6-(5-oxotetrahydrofuran-2-yl)-2-pyridin-2-yl-1H-benzimidazol-5-yl]oxy}pyridine-2-carboxamide], the “Emax(%)” value ([1]; separated enantiomers, listed as 4 A) is reported as 432% and the EC50 ([1]; separated enantiomers) is reported as 15900 nM.

For CN(C)C(=O)Cc1ccc(Oc2cc3nc(-c4ccccn4)[nH]c3cc2C2CCC(=O)O2)cc1 (single isomer, unassigned) [Example 7 B, N,N-dimethyl-2-(4-{[6-(5-oxotetrahydrofuran-2-yl)-2-pyridin-2-yl-1H-benzimidazol-5-yl]oxy}phenyl)acetamide], the “Emax(%)” value ([1]; separated enantiomers, listed as 7 B) was 972%, the EC50 ([1]; separated enantiomers) was 290 nM and the “Rate of decrease (%) in plasma glucose level AUC” value (from here on “Rate of decrease (%)”) (male beagles; oral 0.3 mg/kg) was 12.4%. For the same compound, the “Rate of decrease (%)” value (male beagles; oral 1.0 mg/kg) was 15.6% and the “Difference from control group (Δmg/dl), decrease in blood glucose” value [2] was −146 Δmg/dl.

CN(C)C(=O)Cc1ccc(Oc2cc3nc(-c4ccccn4)[nH]c3cc2C2CCC(=O)O2)cc1 (racemic) [Example 7 Racemate, N,N-dimethyl-2-(4-{[6-(5-oxotetrahydrofuran-2-yl)-2-pyridin-2-yl-1H-benzimidazol-5-yl]oxy}phenyl)acetamide] showed an EC50 [1, 3] of 470 nM.

For O=C1CCC(c2cc3[nH]c(-c4ccccn4)nc3cc2Oc2ccc(C(=O)N3CCC3)cc2)O1 (single isomer, unassigned) [Example 1 A, 5-{5-[4-(azetidin-1-ylcarbonyl)phenoxy]-2-pyridin-2-yl-1H-benzimidazol-6-yl}dihydrofuran-2(3H)-one], the “Emax(%)” value ([1]; separated enantiomers, listed as 1 A) was 541% and the EC50 ([1]; separated enantiomers) was 1910 nM.

In the case of O=C1CCC(c2cc3[nH]c(-c4ccccn4)nc3cc2Oc2ccc(C(=O)N3CCC3)cc2)O1 (single isomer, unassigned) [Example 1 B, 5-{5-[4-(azetidin-1-ylcarbonyl)phenoxy]-2-pyridin-2-yl-1H-benzimidazol-6-yl}dihydrofuran-2(3H)-one], the “Emax(%)” value ([1]; separated enantiomers, listed as 1 B) is reported as 588%, the EC50 ([1]; separated enantiomers) is reported as 240 nM and the “Rate of decrease (%)” value (male beagles; oral 0.3 mg/kg) is reported as 16.2%. The “Rate of decrease (%)” value (male beagles; oral 1.0 mg/kg) was 23.4% and the “Difference from control group (Δmg/dl), decrease in blood glucose” value [2] was −132 Δmg/dl.

CN(C)C(=O)c1ccc(Oc2cc3nc(-c4ccccn4)[nH]c3cc2C2CCC(=O)O2)cn1 (single isomer, unassigned) [Example 4 B, N,N-dimethyl-5-{[6-(5-oxotetrahydrofuran-2-yl)-2-pyridin-2-yl-1H-benzimidazol-5-yl]oxy}pyridine-2-carboxamide] was tested, and the “Emax(%)” value ([1]; separated enantiomers, listed as 4 B) was 668% and the EC50 ([1]; separated enantiomers) was 280 nM.

In the case of CCNC(=O)c1ccc(Oc2cc3nc(-c4ccccn4)[nH]c3cc2C2CCC(=O)O2)cn1 (single isomer, unassigned) [Example 6 B, N-ethyl-5-{[6-(5-oxotetrahydrofuran-2-yl)-2-pyridin-2-yl-1H-benzimidazol-5-yl]oxy}pyridine-2-carboxamide], the “Emax(%)” value ([1]; separated enantiomers, listed as 6 B) is reported as 781% and the EC50 ([1]; separated enantiomers) is reported as 240 nM.

For COCc1ccc(Oc2cc3nc(-c4ccccn4)[nH]c3cc2C2CCC(=O)O2)cn1 (racemic) [Example 11 Racemate, 5-(5-{[6-(methoxymethyl)pyridin-3-yl]oxy}-2-pyridin-2-yl-1H-benzimidazol-6-yl)dihydrofuran-2(3H)-one], the EC50 [1, 3] was 490 nM.

With COCc1ccc(Oc2cc3nc(-c4ccccn4)[nH]c3cc2C2CCC(=O)O2)cn1 (single isomer, unassigned) [Example 11 B, 5-(5-{[6-(methoxymethyl)pyridin-3-yl]oxy}-2-pyridin-2-yl-1H-benzimidazol-6-yl)dihydrofuran-2(3H)-one] the “Emax(%)” value ([1]; separated enantiomers, listed as 11 B) was 788% and the EC50 ([1]; separated enantiomers) was 270 nM.

O=C1CCC(c2cc3[nH]c(-c4ccccn4)nc3cc2Oc2ccc(C(=O)N3CCC3)cc2)O1 (racemic) [Example 1 Racemate, 5-{5-[4-(azetidin-1-ylcarbonyl)phenoxy]-2-pyridin-2-yl-1H-benzimidazol-6-yl}dihydrofuran-2(3H)-one] showed an EC50 [1, 3] of 530 nM.
